The results in this text go back to US9914730B2, “Azaquinazoline inhibitors of Atypical protein Kinase C” (Ignyta, Inc., priority 2012, dated 2018).

The structures appear in SMILES notation. pIC50: −log10 of the molar value.

The assay deals with T1, full-length human PKCι (Homo sapiens, UniProt P41743).
T1 construct: Recombinant, full-length human PKCι expressed in Sf21 insect cells is also commercially available; purchased; host or cells: Sf21 insect cells
T1 sequence (P41743 1-596): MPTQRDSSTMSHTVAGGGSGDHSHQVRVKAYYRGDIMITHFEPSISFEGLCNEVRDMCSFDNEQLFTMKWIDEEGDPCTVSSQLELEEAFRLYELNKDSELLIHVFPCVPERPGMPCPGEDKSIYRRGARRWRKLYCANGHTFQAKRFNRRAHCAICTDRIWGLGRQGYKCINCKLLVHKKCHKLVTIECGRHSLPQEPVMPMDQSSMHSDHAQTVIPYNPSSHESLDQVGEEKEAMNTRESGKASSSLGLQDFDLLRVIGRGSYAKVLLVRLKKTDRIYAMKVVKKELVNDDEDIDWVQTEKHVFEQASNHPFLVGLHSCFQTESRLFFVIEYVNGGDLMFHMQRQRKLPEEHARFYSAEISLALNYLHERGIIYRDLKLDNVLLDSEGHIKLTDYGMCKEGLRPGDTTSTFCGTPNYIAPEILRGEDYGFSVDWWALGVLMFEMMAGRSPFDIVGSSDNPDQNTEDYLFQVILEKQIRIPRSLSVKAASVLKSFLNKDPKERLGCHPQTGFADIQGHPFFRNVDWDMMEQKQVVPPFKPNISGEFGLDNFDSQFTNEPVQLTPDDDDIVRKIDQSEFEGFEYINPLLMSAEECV
Nature of the assay: PKCι IC50 IMAP assay, full-length PKCι at 150 μM ATP. It counts as biochemical. The settings on record: read-out: IC50 in IMAP assay against full length PKCi at 150 μM ATP. In a few lines:
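Dose-response IC50 values come from IMAP fluorescence polarisation after 60 min room-temperature turnover of 100 nM FAM peptide by ~15 pM insect-cell-expressed full-length PKCι at 150 μM ATP (5× KM^APP), normalised to no-compound and no-enzyme controls.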
By pIC50 is commonly meant the IC50 on a negative log10 scale, so that one unit is a factor of ten. In the case of `COc1cncc2nc(-c3ccnc(Nc4ccc(N5CCN(C)CC5)cc4C)c3)nc(N3CCNCC3)c12` [Example 413, [4-(5-Methoxy-4-piperazin-1-yl-pyrido[3,4-d]pyrimidin-2-yl)-pyridin-2-yl]-[2-methyl-4-(4-methyl-piperazin-1-yl)-phenyl]-amine], the negative logarithm of the IC50 (pIC50) is above 7.00. `COc1cncc2nc(-c3ccnc(Nc4cnn(C5CCNCC5)c4)c3)nc(N3CCNCC3)c12` [Example 414, [4-(5-Methoxy-4-piperazin-1-yl-pyrido[3,4-d]pyrimidin-2-yl)-pyridin-2-yl]-(1-piperidin-4-yl-1H-pyrazol-4-yl)-amine]: the pIC50 was above 7.00. Under `COc1cncc2nc(-c3ccnc(Nc4cccc(C)n4)c3)nc(N3CCNCC3)c12` [Example 415, [4-(5-Methoxy-4-piperazin-1-yl-pyrido[3,4-d]pyrimidin-2-yl)-pyridin-2-yl]-(6-methyl-pyridin-2-yl)-amine] stands above 7.00; under `COc1cncc2nc(-c3ccnc(Nc4cncc(C)c4)c3)nc(N3CCNCC3)c12` [Example 416, [4-(5-Methoxy-4-piperazin-1-yl-pyrido[3,4-d]pyrimidin-2-yl)-pyridin-2-yl]-(5-methyl-pyridin-3-yl)-amine], above 7.00; under `COc1cncc2nc(-c3ccnc(Nc4cncc(Cl)c4)c3)nc(N3CCNCC3)c12` [Example 417, (5-Chloro-pyridin-3-yl)-[4-(5-methoxy-4-piperazin-1-yl-pyrido[3,4-d]pyrimidin-2-yl)-pyridin-2-yl]-amine], 6.00 to 7.00. For the compound `COc1cncc2nc(-c3ccnc(Nc4ccc(N5CCOCC5)cc4F)c3)nc(N3CCNCC3)c12` [Example 418, (2-Fluoro-4-morpholin-4-yl-phenyl)-[4-(5-methoxy-4-piperazin-1-yl-pyrido[3,4-d]pyrimidin-2-yl)-pyridin-2-yl]-amine], the negative logarithm of the IC50 (pIC50) was above 7.00.

As for `COc1cncc2nc(-c3ccnc(Nc4ccc(C#N)cc4F)c3)nc(N3CCNCC3)c12` [Example 419, 3-Fluoro-4-[4-(5-methoxy-4-piperazin-1-yl-pyrido[3,4-d]pyrimidin-2-yl)-pyridin-2-ylamino]-benzonitrile], the pIC50 was 6.00 to 7.00.

Take `COc1cncc2nc(-c3ccnc(Nc4cc(C#N)ccc4F)c3)nc(N3CCNCC3)c12` [Example 420, 4-Fluoro-3-[4-(5-methoxy-4-piperazin-1-yl-pyrido[3,4-d]pyrimidin-2-yl)-pyridin-2-ylamino]-benzonitrile]: the pIC50 was 6.00 to 7.00. For `COc1cncc2nc(-c3ccnc(Nc4c(F)cccc4F)c3)nc(N3CCNCC3)c12` [Example 421, (2,6-Difluoro-phenyl)-[4-(5-methoxy-4-piperazin-1-yl-pyrido[3,4-d]pyrimidin-2-yl)-pyridin-2-yl]-amine], the negative logarithm of the IC50 (pIC50) was above 7.00. Consider `COc1cncc2nc(-c3ccnc(Nc4c(C)cccc4F)c3)nc(N3CCNCC3)c12` [Example 422, (2-Fluoro-6-methyl-phenyl)-[4-(5-methoxy-4-piperazin-1-yl-pyrido[3,4-d]pyrimidin-2-yl)-pyridin-2-yl]-amine], for which the pIC50 is above 7.00. Under `COc1cncc(Nc2cc(-c3nc(N4CCNCC4)c4c(OC)cncc4n3)ccn2)c1` [Example 424, [4-(5-Methoxy-4-piperazin-1-yl-pyrido[3,4-d]pyrimidin-2-yl)-pyridin-2-yl]-(5-methoxy-pyridin-3-yl)-amine] stands above 7.00; under `COc1cncc2nc(-c3ccnc(Nc4ccccc4)c3)nc(N3CCC[C@H](O)C3)c12` [Example 425, (S)-1-[5-Methoxy-2-(2-phenylamino-pyridin-4-yl)-pyrido[3,4-d]pyrimidin-4-yl]-piperidin-3-ol], 5.00 to 6.00; under `COc1cncc2nc(-c3ccnc(Nc4cc(C#N)ccn4)c3)nc(N3CCC[C@H](O)C3)c12` [Example 426, 2-{4-[4-((S)-3-Hydroxy-piperidin-1-yl)-5-methoxy-pyrido[3,4-d]pyrimidin-2-yl]-pyridin-2-ylamino}-isonicotinonitrile], 5.00 to 6.00. For the compound `COc1cncc2nc(-c3ccnc(Nc4ccccc4)c3)nc(N3CCC(O)CC3)c12` [Example 427, 1-[5-Methoxy-2-(2-phenylamino-pyridin-4-yl)-pyrido[3,4-d]pyrimidin-4-yl]-piperidin-4-ol], the negative logarithm of the IC50 (pIC50) is 5.00 to 6.00. Consider `COc1cncc2nc(-c3ccnc(Nc4ccccc4)c3)nc(N3CCC[C@@H](O)C3)c12` [Example 428, (R)-1-[5-Methoxy-2-(2-phenylamino-pyridin-4-yl)-pyrido[3,4-d]pyrimidin-4-yl]-piperidin-3-ol], for which the negative-log IC50 (pIC50) is 5.00 to 6.00. Turning to `COc1cncc2nc(-c3ccnc(Nc4cc(C#N)ccn4)c3)nc(N3CCC[C@@H](O)C3)c12` [Example 429, 2-{4-[4-((R)-3-Hydroxy-piperidin-1-yl)-5-methoxy-pyrido[3,4-d]pyrimidin-2-yl]-pyridin-2-ylamino}-isonicotinonitrile], the negative logarithm of the IC50 (pIC50) is 5.00 to 6.00. As for `COc1cncc2nc(-c3ccnc(Nc4ccccc4)c3)nc(NC[C@@H]3CCCN3)c12` [Example 430, [5-Methoxy-2-(2-phenylamino-pyridin-4-yl)-pyrido[3,4-d]pyrimidin-4-yl]-(S)-1-pyrrolidin-2-ylmethyl-amine], the figure is 6.00 to 7.00. Turning to `COc1cncc2nc(-c3ccnc(Nc4ccccc4)c3)nc(NC[C@H]3CCCN3)c12` [Example 431, [5-Methoxy-2-(2-phenylamino-pyridin-4-yl)-pyrido[3,4-d]pyrimidin-4-yl]-(R)-1-pyrrolidin-2-ylmethyl-amine], the pIC50 is 6.00 to 7.00.

Regarding `COc1cncc2nc(-c3ccnc(Nc4ccccc4)c3)nc(N3CCN(CCO)CC3)c12` [Example 432, 2-{4-[5-Methoxy-2-(2-phenylamino-pyridin-4-yl)-pyrido[3,4-d]pyrimidin-4-yl]-piperazin-1-yl}-ethanol], the pIC50 was 6.00 to 7.00. With `COc1cncc2nc(-c3ccnc(Nc4ccccc4)c3)nc(N3CC(CO)C3)c12` [Example 433, {1-[5-Methoxy-2-(2-phenylamino-pyridin-4-yl)-pyrido[3,4-d]pyrimidin-4-yl]-azetidin-3-yl}-methanol], the negative logarithm of the IC50 (pIC50) was 5.00 to 6.00. Turning to `COc1cncc2nc(-c3ccnc(Nc4ccccc4)c3)nc(N3CCN[C@@H](CO)C3)c12` [Example 434, {(R)-4-[5-Methoxy-2-(2-phenylamino-pyridin-4-yl)-pyrido[3,4-d]pyrimidin-4-yl]-piperazin-2-yl}-methanol], the negative-log IC50 (pIC50) is above 7.00. For `COc1cncc2nc(-c3ccnc(Nc4ccccc4)c3)nc(N3CCN4C(=O)OC[C@H]4C3)c12` [Example 435, (R)-7-[5-Methoxy-2-(2-phenylamino-pyridin-4-yl)-pyrido[3,4-d]pyrimidin-4-yl]-hexahydro-oxazolo[3,4-a]pyrazin-3-one], the pIC50 is 6.00 to 7.00. For `COc1cncc2nc(-c3ccnc(Nc4ccccc4)c3)nc(N3CCNC(=O)C3)c12` [Example 438, 4-[5-Methoxy-2-(2-phenylamino-pyridin-4-yl)-pyrido[3,4-d]pyrimidin-4-yl]-piperazin-2-one], the negative-log IC50 (pIC50) was 5.00 to 6.00. Regarding `COc1cncc2nc(-c3ccnc(Nc4cccc(F)c4F)c3)nc(N3CCNCC3)c12` [Example 439, (2,3-Difluoro-phenyl)-[4-(5-methoxy-4-piperazin-1-yl-pyrido[3,4-d]pyrimidin-2-yl)-pyridin-2-yl]-amine], the pIC50 is above 7.00. For the compound `COc1cncc2nc(-c3ccnc(Nc4cc(F)ccc4F)c3)nc(N3CCNCC3)c12` [Example 440, (2,5-Difluoro-phenyl)-[4-(5-methoxy-4-piperazin-1-yl-pyrido[3,4-d]pyrimidin-2-yl)-pyridin-2-yl]-amine], the negative-log IC50 (pIC50) is above 7.00. As for `COc1cncc2nc(-c3ccnc(Nc4c(F)cc(F)cc4F)c3)nc(N3CCNCC3)c12` [Example 441, [4-(5-Methoxy-4-piperazin-1-yl-pyrido[3,4-d]pyrimidin-2-yl)-pyridin-2-yl]-(2,4,6-trifluoro-phenyl)-amine], the pIC50 was above 7.00. Under `COc1cncc2nc(-c3ccnc(Nc4c(F)cccc4F)c3)nc(N3CCN[C@@H](CO)C3)c12` [Example 442, ((R)-4-{2-[2-(2,6-Difluoro-phenylamino)-pyridin-4-yl]-5-methoxy-pyrido[3,4-d]pyrimidin-4-yl}-piperazin-2-yl)-methanol] stands above 7.00; under `COc1cncc2nc(-c3ccnc(Nc4ccccc4)c3)nc(N3CCC(O)C(CO)C3)c12` (stereo not drawn) [Example 443, 3-Hydroxymethyl-1-[5-methoxy-2-(2-phenylamino-pyridin-4-yl)-pyrido[3,4-d]pyrimidin-4-yl]-piperidin-4-ol], 5.00 to 6.00; under `COc1cncc2nc(-c3ccnc(Nc4c(F)ccc(F)c4F)c3)nc(N3CCNCC3)c12` [Example 444, [4-(5-Methoxy-4-piperazin-1-yl-pyrido[3,4-d]pyrimidin-2-yl)-pyridin-2-yl]-(2,3,6-trifluoro-phenyl)-amine], above 7.00. Regarding `COc1cncc2nc(-c3ccnc(Nc4ccccc4C(F)(F)F)c3)nc(N3CCNCC3)c12` [Example 445, [4-(5-Methoxy-4-piperazin-1-yl-pyrido[3,4-d]pyrimidin-2-yl)-pyridin-2-yl]-(2-trifluoromethyl-phenyl)-amine], the pIC50 was 6.00 to 7.00.
